Measurements from PubChem BioAssay AID1963871 (Molecular Pharmacology Branch, DTP, NCI, 2024).

Tested on: KRAS-mutant PDC multicell tumor spheroid viability
Experiment: Anticancer human tumor 521955-158-R2-J5-PDC patient-derived pancreatic carcinoma cell line growth inhibition [KRAS2]
Details: for viability, T/C: stronger effect = lower value
In short: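 Combination screen of spheroid viability in tumor-cell co-cultures with endothelial (HUVEC) and mesenchymal stem cell stroma. Each agent was tested in half-log dilutions, topping at clinical Cmax or at 10 microM without a known Cmax.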

[1] = curve of first compound, second compound 0.1 µM
[2] = curve of first compound, second compound 0.316 µM
[3] = curve of first compound, second compound 1 µM
[4] = curve of first compound, second compound 3.16 µM
[5] = curve of first compound, second compound 10 µM
[6] = second compound 0.1 µM, first compound 0.000316 µM
[7] = second compound 0.1 µM, first compound 0.001 µM
[8] = second compound 0.1 µM, first compound 0.00316 µM
[9] = second compound 0.1 µM, first compound 0.01 µM
[10] = second compound 0.1 µM, first compound 0.0316 µM
[11] = second compound 0.1 µM, first compound 0.1 µM
[12] = second compound 0.316 µM, first compound 0.000316 µM
[13] = second compound 0.316 µM, first compound 0.001 µM
[14] = second compound 0.316 µM, first compound 0.00316 µM
[15] = second compound 0.316 µM, first compound 0.01 µM
[16] = second compound 0.316 µM, first compound 0.0316 µM
[17] = second compound 0.316 µM, first compound 0.1 µM
[18] = second compound 1 µM, first compound 0.000316 µM
[19] = second compound 1 µM, first compound 0.001 µM
[20] = second compound 1 µM, first compound 0.00316 µM
[21] = second compound 1 µM, first compound 0.01 µM
[22] = second compound 1 µM, first compound 0.0316 µM
[23] = second compound 1 µM, first compound 0.1 µM
[24] = second compound 3.16 µM, first compound 0.000316 µM
[25] = second compound 3.16 µM, first compound 0.001 µM
[26] = second compound 3.16 µM, first compound 0.00316 µM
[27] = second compound 3.16 µM, first compound 0.01 µM
[28] = second compound 3.16 µM, first compound 0.0316 µM
[29] = second compound 3.16 µM, first compound 0.1 µM
[30] = second compound 10 µM, first compound 0.000316 µM
[31] = second compound 10 µM, first compound 0.001 µM
[32] = second compound 10 µM, first compound 0.00316 µM
[33] = second compound 10 µM, first compound 0.01 µM
[34] = second compound 10 µM, first compound 0.0316 µM
[35] = second compound 10 µM, first compound 0.1 µM
[36] = second compound 0.1 µM, first compound 0.316 µM
[37] = second compound 0.1 µM, first compound 1 µM
[38] = second compound 0.316 µM, first compound 0.316 µM
[39] = second compound 0.316 µM, first compound 1 µM
[40] = second compound 1 µM, first compound 0.316 µM
[41] = second compound 1 µM, first compound 1 µM
[42] = second compound 3.16 µM, first compound 0.316 µM
[43] = second compound 3.16 µM, first compound 1 µM
[44] = second compound 10 µM, first compound 0.316 µM
[45] = second compound 10 µM, first compound 1 µM
[46] = second compound 0.1 µM, first compound 3.16 µM
[47] = second compound 0.1 µM, first compound 10 µM
[48] = second compound 0.316 µM, first compound 3.16 µM
[49] = second compound 0.316 µM, first compound 10 µM
[50] = second compound 1 µM, first compound 3.16 µM
[51] = second compound 1 µM, first compound 10 µM
[52] = second compound 3.16 µM, first compound 3.16 µM
[53] = second compound 3.16 µM, first compound 10 µM
[54] = second compound 10 µM, first compound 3.16 µM
[55] = second compound 10 µM, first compound 10 µM
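Further: viability read after seven days of drug exposure.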

Structure (SMILES)	IC50 [1]	IC50 [2]	IC50 [3]	IC50 [4]	IC50 [5]	viability, T/C [8]	viability, T/C [9]	viability, T/C [10]	viability, T/C [11]	viability, T/C [14]	viability, T/C [15]	viability, T/C [16]	viability, T/C [17]	viability, T/C [20]	viability, T/C [22]	viability, T/C [23]	viability, T/C [28]	viability, T/C [29]	viability, T/C [34]	viability, T/C [35]	further results
CN(C)C/C=C/C(=O)Nc1cc2c(Nc3ccc(F)c(Cl)c3)ncnc2cc1O[C@H]1CCOC1 + CNCc1ccccc1-c1csc(C(C)Nc2nc(C)nc3cc(OC)c(OC)cc23)c1	> 100 nM	> 100 nM	> 100 nM	2.23 nM	< 0.316 nM	93.3%	91%	88.9%	77.3%	81.1%	92.6%	98.5%	64.4%	100%	97%	97.7%	85.9%	1%	0.23%	0.24%	viability, T/C [6]: 107%; viability, T/C [7]: 104%; viability, T/C [12]: 110%; viability, T/C [13]: 93.5%; viability, T/C [18]: 113%; viability, T/C [19]: 120%; viability, T/C [21]: 100%; viability, T/C [24]: 114%; viability, T/C [25]: 116%; viability, T/C [26]: 0.23%; viability, T/C [27]: 0.26%; viability, T/C [30]: 0.27%; viability, T/C [31]: 0.27%; viability, T/C [32]: 0.18%; viability, T/C [33]: 0.16%
CC(C)n1nc(-c2ccc3oc(N)nc3c2)c2c(N)ncnc21 + COc1cc2nc(C)nc(NC(C)c3cc(N)cc(C(F)(F)F)c3)c2cc1OC1CCOC1	9.15 nM	7.73 nM	6.55 nM	4.41 nM	0.453 nM	64.1%	48.5%	32.6%	26%	65.4%	44.8%	33.7%	25.6%	57.1%	29.6%	25.1%	27.4%	20.2%	21.6%	19%	viability, T/C [6]: 61.5%; viability, T/C [7]: 83.8%; viability, T/C [12]: 90.1%; viability, T/C [13]: 83.9%; viability, T/C [18]: 81%; viability, T/C [19]: 77.1%; viability, T/C [21]: 46.8%; viability, T/C [24]: 84.2%; viability, T/C [25]: 80.6%; viability, T/C [26]: 53.7%; viability, T/C [27]: 35.8%; viability, T/C [30]: 56.9%; viability, T/C [31]: 32.4%; viability, T/C [32]: 34.7%; viability, T/C [33]: 26.1%
Cn1ncnc1[C@H]1c2n[nH]c(=O)c3cc(F)cc(c23)N[C@@H]1c1ccc(F)cc1 + COc1cc2nc(C)nc(NC(C)c3cc(N)cc(C(F)(F)F)c3)c2cc1OC1CCOC1	> 100 nM	> 100 nM	> 100 nM	> 100 nM	> 100 nM	85.2%	67.1%	70.3%	66.2%	85.3%	63.2%	67.4%	65.2%	84%	69.3%	71.1%	77.8%	70.3%	57.6%	55%	viability, T/C [6]: 80.6%; viability, T/C [7]: 78.6%; viability, T/C [12]: 81.2%; viability, T/C [13]: 90.5%; viability, T/C [18]: 86%; viability, T/C [19]: 88.1%; viability, T/C [21]: 75.1%; viability, T/C [24]: 94.2%; viability, T/C [25]: 94.6%; viability, T/C [26]: 88.7%; viability, T/C [27]: 81.2%; viability, T/C [30]: 84.7%; viability, T/C [31]: 70.5%; viability, T/C [32]: 75.3%; viability, T/C [33]: 67.9%
Cn1ncnc1[C@H]1c2n[nH]c(=O)c3cc(F)cc(c23)N[C@@H]1c1ccc(F)cc1																					viability, T/C (compound 0.000316 µM): 104% [middle of 5 runs]; viability, T/C (compound 0.001 µM): 104% [middle of 5 runs]; viability, T/C (compound 0.00316 µM): 97.1% [middle of 5 runs]; viability, T/C (compound 0.01 µM): 90.9% [middle of 5 runs]; viability, T/C (compound 0.0316 µM): 90% [middle of 5 runs]; viability, T/C (compound 0.1 µM): 82.8% [middle of 5 runs]; IC50 (curve of compound): > 100 nM
CCN1CCN(Cc2ccc(Nc3ncc(F)c(-c4cc(F)c5nc(C)n(C(C)C)c5c4)n3)nc2)CC1 + CNCc1ccccc1-c1csc(C(C)Nc2nc(C)nc3cc(OC)c(OC)cc23)c1	> 1000 nM	> 1000 nM	627 nM	< 3.16 nM	< 3.16 nM	107%	97.5%	94.4%	89.5%	120%	108%	89.6%	107%	116%	117%	95.3%	0.25%	0.25%	0.29%	0.24%	viability, T/C [36]: 108%; viability, T/C [37]: 94.9%; viability, T/C [38]: 103%; viability, T/C [39]: 93.4%; viability, T/C [21]: 111%; viability, T/C [40]: 119%; viability, T/C [41]: 7.8%; viability, T/C [26]: 2.02%; viability, T/C [27]: 0.33%; viability, T/C [42]: 0.17%; viability, T/C [43]: 0.6%; viability, T/C [32]: 0.21%; viability, T/C [33]: 0.26%; viability, T/C [44]: 0.21%; viability, T/C [45]: 0.26%
CCNC(=O)CC1N=C(c2ccc(Cl)cc2)c2cc(OC)ccc2-n2c(C)nnc21 (stereo unspecified) + C=CC(=O)N1CCN(c2nc(=O)n(-c3c(C)ccnc3C(C)C)c3nc(-c4c(O)cccc4F)c(F)cc23)C(C)C1	474 nM	1180 nM	1100 nM	741 nM	169 nM			99.4%	93.4%			119%	98.4%		120%	109%	101%	86.7%	66.5%	58.6%	viability, T/C [36]: 55.3%; viability, T/C [37]: 41.1%; viability, T/C [46]: 39.9%; viability, T/C [47]: 35.7%; viability, T/C [38]: 72.2%; viability, T/C [39]: 50%; viability, T/C [48]: 43.7%; viability, T/C [49]: 37.1%; viability, T/C [40]: 77%; viability, T/C [41]: 52.3%; viability, T/C [50]: 38.9%; viability, T/C [51]: 35.8%; viability, T/C [42]: 63%; viability, T/C [43]: 45.4%; viability, T/C [52]: 39.1%; viability, T/C [53]: 37.5%; viability, T/C [44]: 39.4%; viability, T/C [54]: 29%; viability, T/C [55]: 31.1%
CC1(C)CCC(CN2CCN(c3ccc(C(=O)NS(=O)(=O)c4ccc(NCC5CCOCC5)c([N+](=O)[O-])c4)c(Oc4cnc5[nH]ccc5c4)c3)CC2)=C(c2ccc(Cl)cc2)C1 + COc1cc2nc(C)nc(NC(C)c3cc(N)cc(C(F)(F)F)c3)c2cc1OC1CCOC1	6340 nM	5020 nM	3650 nM	2000 nM	391 nM			74.8%	82.6%			74.5%	82.8%		71.9%	78.2%	81%	82.4%	55.7%	52.6%	viability, T/C [36]: 92.4%; viability, T/C [37]: 93.3%; viability, T/C [46]: 82.9%; viability, T/C [47]: 28.2%; viability, T/C [38]: 86%; viability, T/C [39]: 80.5%; viability, T/C [48]: 70.9%; viability, T/C [49]: 18.8%; viability, T/C [40]: 82.6%; viability, T/C [41]: 81.3%; viability, T/C [50]: 55.7%; viability, T/C [51]: 10.8%; viability, T/C [42]: 86.1%; viability, T/C [43]: 80%; viability, T/C [52]: 30.2%; viability, T/C [53]: 12.2%; viability, T/C [44]: 51.3%; viability, T/C [45]: 36.8%; viability, T/C [54]: 2.22%; viability, T/C [55]: 1.29%
